Measured values published in ChEMBL document CHEMBL1150462, “Synthesis of 2-O-substituted -D-Gal-(14)--D-GlcNAc-1-0-Bn as specific acceptors for -L-(13) fucosyltransferases” (1992).

Assays:
Homo sapiens [1] = species on record: Homo sapiens; assay: Relative activity was determined at 0.3 mM of compound in ovarian cancer sera in alpha-L-(1-3) fucosyltransferase assay using [14C]-fucose as a ligand; type: functional
Ovarian carcinoma cell [2] = assay: (§1) Percentage of fucosyltransferase accepted by the compound in alpha-L-(1-3) fucosyltransferase assay using [14C]fucose as a ligand; type: functional, Homo sapiens
Homo sapiens [3] = species on record: Homo sapiens; assay: as §1; type: functional
Ovarian carcinoma cell [4] = assay: Relative activity was determined at 0.3 mM of compound in ovarian-tumor extract in alpha-L-(1-3) fucosyltransferase assay using [14C]fucose as a ligand; type: functional, Homo sapiens
Ovarian carcinoma cell [5] = assay: Percentage of fucosyltransferase accepted by the compound in alpha-L-(1-3) fucosyltransferase assay using [14C]-fucose as a ligand; type: functional, Homo sapiens
[6] = Kinetic constant of the enzyme activity was determined by incorporation of [14C]- fucose as a function of acceptor concentration
Homo sapiens [7] = species on record: Homo sapiens; assay: Percentage of fucosyltransferase accepted by the compound in alpha-L-(1-3) fucosyltransferase assay using [14C]fucose as a ligand;=; type: functional

Row | Compound | Relative activity (Homo sapiens [1]) [c.p.m.] | Relative activity (Ovarian carcinoma cell [2]) [%] | Relative activity (Homo sapiens [3]) [%] | Relative activity (Ovarian carcinoma cell [4]) [c.p.m.] | Relative activity (Ovarian carcinoma cell [5]) [%] | Km [6] [µM] | Relative activity (Homo sapiens [7]) [%]
1 | CC(=O)N[C@@H]1[C@@H](O)[C@H](O[C@@H]2O[C@H](CO)[C@H](O)[C@H](O)[C@H]2O[C@@H]2O[C@@H](C)[C@@H](O)[C@@H](O)[C@@H]2O)[C@@H](CO)O[C@H]1O | 4380 | 100 | 100 | 18291 | – | – | –
2 | CO[C@H]1[C@H](O[C@H]2[C@H](O)[C@@H](NC(C)=O)C(O)O[C@@H]2CO)O[C@H](CO)[C@H](O)[C@@H]1O (stereo partly specified) | 1730 | – | 100 | 3977 | 100 | 1330 | –
3 | CC(=O)N[C@H]1[C@H](OCc2ccccc2)O[C@H](CO)[C@@H](O[C@@H]2O[C@H](CO)[C@H](O)[C@H](O)[C@H]2O[C@@H]2O[C@@H](C)[C@@H](O)[C@@H](O)[C@@H]2O)[C@@H]1O | 7350 | – | – | 42580 | 233 | 260 | 168
4 | CC(=O)N[C@@H]1[C@@H](O)[C@H](O[C@@H]2O[C@H](CO)[C@H](O)[C@H](O)[C@H]2O)[C@@H](CO)O[C@H]1O | 1620 | – | – | 5024 | – | – | –
5 | CO[C@H]1[C@H](O[C@H]2[C@H](O)[C@@H](NC(C)=O)[C@H](OCc3ccccc3)O[C@@H]2CO)O[C@H](CO)[C@H](O)[C@@H]1O | 5330 | 375 | 308 | 14924 | – | 440 | –
